“Also recorded” adds a separate entry of the source. Residues, ends and D or L forms follow the SMILES beside them. *: point of attachment. Cbz = O=C(OCc1ccccc1)*
Experiments:
C. elegans strain PE254 [1] = assay: Follow-up 11-point re-test, C. elegans LSC viability; type: in vivo, Caenorhabditis elegans; settings: for activity on C. elegans viability in follow-up (in words): 11-point titration, day 7, GFP area and worm number; for EC50: day 7, screening control in re-test, 4 replicate wells
Description: C. elegans strain PE254 were collected from six NGM plates and washed. […] Assay-ready plates were prepared as above with an 11-point, 1:3 titration of 96 compounds identified as active from the qHTS screen based on curve classification and maximum response. […] Data were normalized as above, and concentration–response curves were fit in Prism with nonlinear regression log(agonist) versus response–variable slope (four parameters) fit.

C. elegans = settings: total GFP area, days 3 and 7 post chemical exposure
C. elegans strain PE254 [2] = assay: C. elegans LSC qHTS viability assay, Anti-Infectives library primary screen (BG-fed, 384-well); type: in vivo, Caenorhabditis elegans; settings: for activity on C. elegans viability in primary qHTS (in words): seven-point titration
Description: Levamisole, ivermectin and albendazole were purchased from Sigma-Aldrich. Stock solutions of all compounds were prepared at 10 mM in DMSO, and ivermectin was diluted to a 10 µM working dilution in DMSO. […] Of these, 284 (38%) are approved for clinical use in the United States, 32 (4%) were previously marketed for use in the United States, and 62 (8%) are used clinically outside of the United States. […] DMSO stock solutions of were arrayed in Echo-qualified 384-well cyclic olefin copolymer plates (Labcyte) in qHTS inter-plate dilution with seven concentrations, 1:5 dilution, resulting in a final concentration range of 2.5–20 mM high concentration titrated to 160 nM to 1.28 µM low concentration ([Yasgar et al., 2008]). ‘Assay-ready’ plates were prepared in 384-well uClear microtiter plates (Greiner BioOne), with compounds acoustically dispensed at 250 nl per well with an Echo 555 in the above inter-plate titration array. Two plates with DMSO added across the compound field at the same volume were prepared as screening controls (‘uniformity plates’). DMSO vehicle control was added to every well of column 1, and levamisole cytotoxicity control was added at a high concentration of 10 mM in wells 1–8 and titrated 1:3, starting at a high concentration of 10 mM to 4.57 µM in wells 9–16 of column 2 of every plate. Additionally, ivermectin, levamisol and albendazole were plated as internal controls on one assay plate in 16-point, 1:2 titration down six replicate columns per compound, starting at a high concentration of 10 µM (ivermectin) or 10 mM (levamisole and albendazole). Assay-ready plates were sealed and frozen at −80°C until use.
C. elegans strain PE254 were collected from 12 NGM plates as above, transferred to 250 ml S medium supplemented with OP50 E. coli pellet collected from 2 l overnight culture, and grown for 5 days at 21°C with vigorous shaking in an Incu-Shaker Mini Shaking Incubator (Benchmark Scientific, Inc.). Eggs were axenized as above and hatched overnight in M9 buffer at 21°C and shaken at 65 rpm. Assay ready plates were thawed and allowed to equilibrate to ambient temperature. BGs in S medium (30 µl/well) at an OD600=0.85 were manually added across plates with a Capp pipette. Synchronized L1 worms from above were collected, diluted and plated at ten worms/30 µl/well with a Capp pipette into assay-ready microtiter plates pre-plated with BGs and compounds (240-fold dilution). […] No ethical approval or guidance is needed for working with nematodes.
Data from the Anti-Infectives screen were normalized by plate to corresponding intra-plate controls as previously described ([Inglese et al., 2006]). Assay statistics were calculated using the same respective controls. Total object ‘GFP’ area (µm^2) and number of worms were normalized to the average signal of DMSO-treated wells as zero percent neutral control, and the average signal of 41.7 µM levamisole-treated wells as −100% activity. In-house software was used to fit the resulting inter-plate titration data to the standard Hill equation, and concentration–response curves were classified by activity as previously described ([Southall et al., 2009]). Curve fits assignments of −1.1, −1.2, −2.1, −2.2 and −3 were considered active and visually confirmed.

C. elegans strain PE254 [3] = assay: Life-stage distribution analysis by COPAS flow cytometry after 7-day treatment; type: in vivo, Caenorhabditis elegans; settings: 7-day treatment at ∼EC75-80, mixed population of 2000 worms/well
Description: After 7 days of compound treatment in six-well culture plates seeded with a mixed population of 2000 C. elegans strain PE254, a life-stage distribution analysis was determined by TOF and EC using the COPAS FP BioSorter, followed by bulk collection in a 50 ml conical tube for use in proteomics studies.

HEK293 cells = assay: HEK293 cell viability (CellTiter-Glo, ATP levels); type: cell-based; settings: Homo sapiens, 24 h post-treatment, screening control, 14 replicate wells
Description: Mammalian cell toxicity was evaluated in HEK293 cells (ATCC) using ATP levels as an indicator of metabolically active cells. Assays were performed in 1536-well plates (Greiner white/solid bottom, high base), and luminescence measurements were made on a ViewLux (Perkin Elmer) ([Martinez et al., 2021]; [Solinski et al., 2019]). Assay-ready plates in 1536-well format were prepared as above using the 384-well Echo-compatible source plates; 25 nl of a seven-point titration with 1:5 dilution starting at a high concentration of 2.5–20 mM of compound was added to respective wells with an Echo 555 acoustic dispenser. A titration of digitonin, 20 mM to 610 nM in DMSO (83.3 µM to 2.5 nM final assay concentration), was used as an intraplate cell toxicity control titration. DMSO vehicle and 83.3 μM digitonin final concentration (64 or 32 replicate wells per assay plate, respectively) were used to establish the assay signal window. Plates were stored at −80°C until use and equilibrated to ambient temperature prior to cell dispense. Then, 1500 cells were added at 6 μl assay volume/well (240-fold dilution) across plates with a Multidrop Combi dispenser (Thermo Fisher Scientific) in standard Dulbecco's modified Eagle medium. Cell viability-dependent luminescence levels were read following the addition of 4 μl CellTiter-Glo (Promega) after 24 h incubation with the test compound.

C. elegans strain PE254 [4] = assay: 384-well LSC C. elegans viability assay, life-stage sorted worms on BGs or OP50 live bacteria (assay development); type: in vivo, Caenorhabditis elegans
Description: Strain PE254 worms were collected from eight NGM plates as above. The mixed population of C. elegans was resuspended in 30 ml 1× S basal buffer and plated at ten GFP worms per well of each life stage into respective wells of 384-well uClear microtiter plates with the COPAS biosorter run with the calibration protocol and settings from above. E. coli BGs diluted to OD600=0.6 or OP50 live bacteria diluted to OD600=0.05, 0.10, 0.15 or 0.2 in S medium were added to respective plates at 30 μl per well manually with a Capp pipette (BioVentures, Inc.). […] Plates were covered with a Breath-Easy seal (Thermo Fisher Scientific) and weighted metal lids with gas exchange pores (Fujifilm Wako Automation Corp.). Worms were grown in the presence of compound or DMSO for 7 days at 21°C and 65 rpm in an Incu-Shaker (Benchmark Scientific). Worms were imaged every 24–72 h on an Acumen eX3 laser scanning cytometer (STP Labtech). Plates were read with default reader settings, with scan 1 488 nm laser, green (FL-2) detection channel, 400 voltage, sensitivity of 2 and triggered in the green PMT. Green objects detected by the reader were identified as worms based on the filtered FL-2 object parameters perimeter (100-2200), area (1000-180,000), and peak intensity (150-1500). Viability was monitored as an increase in GFP fluorescence quantified as total number and total object area (µm^2) of FL-2 filtered objects per well. LSC data were collected using cellista 4 (version 4.3.4.0, STP Labtech).
Concentration–response curves for average total filtered FL-2 object area (‘GFP area’) and total filtered FL-2 number of objects (‘number of worms’) for each respective compound were fit with the nonlinear regression log (agonist) versus response–variable slope (four parameters) algorithm in Prism (GraphPad Software). Hillslope and/or EC50 constraints were applied as needed to all life stages per compound across the 7-day time course, and EC50 values were calculated. […] (3) [drawing 3] where σ is the mean signal and µ is the standard deviation for the treated (p) or neutral (n) controls.

[5] = treatment day 2, internal control, 16-point titration, six replicate wells, read-out: Treatment day, EC50 (GFP area)
[6] = treatment day 3, internal control, 16-point titration, six replicate wells, read-out: Treatment day, EC50 (GFP area)
[7] = treatment day 4, internal control, 16-point titration, six replicate wells, read-out: Treatment day, EC50 (GFP area)
[8] = treatment day 5, internal control, 16-point titration, six replicate wells, read-out: Treatment day, EC50 (GFP area)
[9] = treatment day 6, internal control, 16-point titration, six replicate wells, read-out: Treatment day, EC50 (GFP area)
[10] = treatment day 7, internal control, 16-point titration, six replicate wells, read-out: Treatment day, EC50 (GFP area)

Compound: oligomycin A
- activity on C. elegans viability in follow-up (in words) (C. elegans strain PE254 [1]): best activity; also recorded: potent and/or efficacious toxicity

Compound: Clc1ccc(C(c2ccc(Cl)cc2)C(Cl)(Cl)Cl)cc1 [DDT, dichlorodiphenyltrichloroethane]
- activity in Tox21 sub-library C. elegans qHTS (in words) (C. elegans): potent activity

Compound: CC(=O)OC[C@H]1O[C@@H]([S-])[C@H](OC(C)=O)[C@@H](OC(C)=O)[C@@H]1OC(C)=O.CCP(CC)CC.[Au+] [Auranofin, auranofin]
- activity on C. elegans viability in follow-up (in words) (C. elegans strain PE254 [1]): best activity; also recorded: potent and/or efficacious toxicity

Compound: CC(C)C[C@@H](C=O)NC(=O)[C@H](CC(C)C)NC(=O)[C@H](CC(C)C)NC(=O)OCc1ccccc1 [MG-132] (Cbz-Leu-Leu-Leu-aldehyde)
- activity on C. elegans viability in primary qHTS (in words) (C. elegans strain PE254 [2]; GFP area): Inactive
- effect on life stage viability (in words) (C. elegans strain PE254 [3]): no discernable effect

Compound: O=C(C1CCCCC1)N1CC(=O)N2CCc3ccccc3C2C1 (stereo not drawn) [Praziquantel]
- curve classification (CC) (C. elegans strain PE254 [2]; GFP area, day 7): 4
- activity on C. elegans viability in primary qHTS (in words) (C. elegans strain PE254 [2]; GFP area): not detected; also recorded: not identified as active
- effect on life stage viability (in words) (C. elegans strain PE254 [3]): no effect

Compound: CC(C)(C)c1cc(C=C(C#N)C#N)cc(C(C)(C)C)c1O [Tyrphostin A9, tyrphostin A9]
- activity on C. elegans viability in follow-up (in words) (C. elegans strain PE254 [1]): best activity; also recorded: potent and/or efficacious toxicity

Compound: O=C(/C=C\n1cnc(-c2cc(C(F)(F)F)cc(C(F)(F)F)c2)n1)NNc1ccccn1 [Verdinexor, verdinexor]
- activity on C. elegans viability in primary qHTS (in words) (C. elegans strain PE254 [2]; GFP area): low potency and efficacy
- activity on C. elegans viability in follow-up (in words) (C. elegans strain PE254 [1]): moderately active

Compound: O=C(/C=C\n1cnc(-c2cc(C(F)(F)F)cc(C(F)(F)F)c2)n1)NNc1cnccn1 [Selinexor]
- activity on C. elegans viability in primary qHTS (in words) (C. elegans strain PE254 [2]; GFP area): low potency and efficacy
- activity on C. elegans viability in follow-up (in words) (C. elegans strain PE254 [1]): moderately active
- effect on life stage viability (in words) (C. elegans strain PE254 [3]): inactive

Compound: C[C@@H]1CC[C@@]2(OC1)O[C@H]1[C@@H](O)[C@H]3[C@@H]4CC[C@H]5C[C@@H](O[C@@H]6O[C@H](CO)[C@H](O[C@@H]7O[C@H](CO)[C@@H](O)[C@H](O[C@@H]8OC[C@@H](O)[C@H](O)[C@H]8O)[C@H]7O[C@@H]7O[C@H](CO)[C@H](O)[C@H](O[C@@H]8O[C@H](CO)[C@@H](O)[C@H](O)[C@H]8O)[C@H]7O)[C@H](O)[C@H]6O)[C@H](O)C[C@]5(C)[C@H]4CC[C@]3(C)[C@H]1[C@@H]2C [Digitonin, digitonin]
- EC50 (HEK293 cells): 31.3 µM

Compound: COC(=O)[C@]1(C)CC[C@]2(C)CC[C@]3(C)C4=CC=C5C(=CC(=O)C(O)=C5C)[C@]4(C)CC[C@@]3(C)[C@@H]2C1 [Pristimerin, pristimerin]
- activity on C. elegans viability in follow-up (in words) (C. elegans strain PE254 [1]): potent and/or efficacious toxicity

Compound: CC(C)C[C@H](NC(=O)[C@H](Cc1ccccc1)NC(=O)c1cnccn1)B(O)O [Bortezomib]
- EC50 (C. elegans strain PE254 [2]; Caenorhabditis elegans, Fig. 3D, read-out: qHTS potency based on GFP area): 0.888 µM
- EC50 (C. elegans strain PE254 [2]; Caenorhabditis elegans, Fig. 3D, read-out: qHTS potency based on worm number): 0.592 µM
- effect on life stage viability (in words) (C. elegans strain PE254 [3]): potent larval-stage depletion
- effect on life stage viability (in words) (C. elegans strain PE254 [3]; listed as 5): affecting life-stage progression or number

Compound: c1ccc([C@H]2CN3CCSC3=N2)cc1 [Levamisole]
- EC50 (C. elegans strain PE254 [2]; day 3, intra-plate screening control, averaged from 21 replicates, normalized to 41.7 μM levamisole, read-out: EC50 (GFP area)): 9.37 ± 0.93 µM
- EC50 (C. elegans strain PE254 [2]; day 3, intra-plate screening control, averaged from 21 replicates, read-out: EC50 (number of worms)): 5.96 ± 2.4 µM
- EC50 (C. elegans strain PE254 [2]; day 7, intra-plate screening control, averaged from 21 replicates, read-out: EC50 (GFP area)): 7.99 ± 1.44 µM
- EC50 (C. elegans strain PE254 [2]; day 7, intra-plate screening control, averaged from 21 replicates, read-out: EC50 (number of worms)): 5.74 ± 0.91 µM
- activity on C. elegans viability in primary qHTS (in words) (C. elegans strain PE254 [2]; GFP area): active
- EC50 (C. elegans strain PE254 [2]; [5]): 12.7 ± 4.7 µM
- EC50 (C. elegans strain PE254 [2]; [6]): 14 ± 5.5 µM
- EC50 (C. elegans strain PE254 [2]; [7]): 5.6 ± 1.5 µM
- EC50 (C. elegans strain PE254 [2]; [8]): 5.3 ± 0.6 µM
- EC50 (C. elegans strain PE254 [2]; [9]): 4.9 ± 0.4 µM
- EC50 (C. elegans strain PE254 [2]; [10]): 5 ± 0.8 µM
- EC50 values (in words) (C. elegans strain PE254 [4]; all life stages, both media (BGs and live bacteria), 7-day time course): low-micromolar range
- EC50 (C. elegans strain PE254 [1]; read-out: EC50 using #worms): 2.45 µM
- EC50 (C. elegans strain PE254 [1]; read-out: EC50 using GFP area): 2.23 µM

Compound: CCOCn1c(-c2ccc(Cl)cc2)c(C#N)c(Br)c1C(F)(F)F [Chlorfenapyr, chlorfenapyr]
- activity in Tox21 sub-library C. elegans qHTS (in words) (C. elegans): identified

Compound: Ivermectin
- activity on C. elegans viability in primary qHTS (in words) (C. elegans strain PE254 [2]; GFP area): active
- EC50 (C. elegans strain PE254 [2]; [5]): 0.017 ± 0.0039 µM
- EC50 (C. elegans strain PE254 [2]; [6]): 0.0169 ± 0.0023 µM
- EC50 (C. elegans strain PE254 [2]; [7]): 0.014 ± 0.0017 µM
- EC50 (C. elegans strain PE254 [2]; [8]): 0.0146 ± 0.0011 µM
- EC50 (C. elegans strain PE254 [2]; [9]): 0.0136 ± 0.0011 µM
- EC50 (C. elegans strain PE254 [2]; [10]): 0.0124 ± 0.0012 µM
- EC50 (C. elegans strain PE254 [4]; all life stages grown on BGs, by day 1, read-out: half-maximal effective concentration (EC50)): ~0.001 µM

Compound: O=C(Oc1ccc([N+](=O)[O-])cc1)N1CCC(C(O)(c2ccc3c(c2)OCO3)c2ccc3c(c2)OCO3)CC1 [JZL-184]
- activity on C. elegans viability in primary qHTS (in words) (C. elegans strain PE254 [2]; GFP area): low potency and efficacy
- activity on C. elegans viability in follow-up (in words) (C. elegans strain PE254 [1]): moderately active

Source: PMC10067442, “In vivo quantitative high-throughput screening for drug discovery and comparative toxicology” (Disease Models & Mechanisms, 2023)
